Format in all cases: in vivo
The nature of data set [1]: Mammalian toxicity, oral, Swiss white mice. As to conditions: mouse, in vivo. On the procedure:
(§1) Mammalian toxicity was determined against Swiss white mice.

Data set [2] deals with house flies, Musca domestica. Nature of the data set: Insecticidal activity against house flies (topical on the notum, mortality at 24 h). As to conditions: for LD50: Musca domestica, topical, read-out: House flies LD50. On the procedure: (§2) Representative compounds of the N-aryloxy- and N-alkoxysulfinylcarbamate esters of the invention were tested for insecticidal activity against two insect species, house flies, Musca domestica, and mosquito larvae, Culex pipiens. Stock 1% concentrated solutions of each of the test compounds were made in acetone, and such solutions diluted with acetone to a concentration of 0.001-0.1%. House files were treated topically on the notum by 1 μL of each of the diluted acetone solutions and percent mortality was counted 24 hours after application. Insects were held at a constant temperature of 60° F. Larvicidal activity was determined by applying 1 ml of the acetone solutions in 100 ml of water containing 20 3rd instar mosquito larvae. Results are presented as LD50 in μg/g for house flies and LC50 in ppm for mosquito larvae.

For data set [3], the system named is mosquito larvae, Culex pipiens. Nature of the data set: Larvicidal activity against mosquito larvae. Particulars: 1 ml acetone solution in 100 ml water containing 20 3rd instar larvae. On the procedure: as §2
For another data set, the system named is Swiss white mice. Nature of the data set: Mammalian toxicity, oral, Swiss white mice. As to conditions: compared with aldicarb / carbofuran. The procedure: as §1
[4] abbreviates: oral, corn oil carrier, read-out: Mice LD50.
The mark [5] stands for this setting: 1 μL acetone solution on the notum, mortality 24 hours after application, 60° F.

Like-named read-outs stand apart in the source and are kept apart here.

The term LD50 denotes the dose at which mortality reaches 50%. As for `CCCCCCOS(=O)N(C)C(=O)Oc1cccc2ccccc12` (centres unmarked) [XIII, 1-naphthyl(methyl)(hexoxysulfinyl)carbamate], the LD50 in data set [1] (setting [4]) was greater than 1000 mg/kg; in data set [2] (24 h), 360 mg/kg.
For the compound `CCCCCCOS(=O)N(C)C(=O)Oc1ccccc1OC(C)C` (centres unmarked) [VIII, 2-isopropoxyphenyl (methyl)(n-hexoxysulfinyl)carbamate], the results for the median lethal dose (LD50) in data set [1] (setting [4]) and in data set [2] (24 h) were greater than 1000 mg/kg and 42 mg/kg, respectively. Besides, the “Culex LC50” value in data set [3] was found to be 0.01 ppm.
For `CNC(=O)O/N=C/C(C)(C)SC` [aldicarb, 2-methyl-2-(methylthio)propionaldehyde 0-(methylcarbamoyl)oxime, reference compound], in data set [1] (po, comparison value for parent aldicarb, read-out: LD50 (parent carbamate aldicarb, mammalian toxicity, text)), the LD50 lay in the range of 0.3 to 0.5 mg/kg.
Turning to `CN(C(=O)Oc1cccc2c1OC(C)(C)C2)S(=O)OC(C)(C)C` (centres unmarked) [II, 2,3-dihydro-2,2-dimethylbenzofuranyl-7(methyl)(t-butoxysulfinyl)carbamate], the median lethal dose (LD50) is 40 mg/kg in data set [1] (setting [4]) and 2.2 mg/kg in data set [2] (24 h). Besides, the “Culex LC50” value in data set [3] was 0.0058 ppm.
With `CCCCCCOS(=O)N(C)C(=O)ON=C(C)SC` (centres unmarked) [X, S-methyl N-[N'-methyl-N'-hexoxysulfinylcarbamoyloxy]thioacetimidate], the LD50 in data set [1] (setting [4]) came out at 260 mg/kg; in data set [2] (setting [5]), 6.5 mg/kg.
For `CCCCOS(=O)N(C)C(=O)ON=C(C)SC` (centres unmarked) [XI, S-methyl N-[N'-methyl-N'-butoxysulfinylcarbamoyloxy]thioacetimidate], the LD50 in data set [2] (setting [5]) turned out to be 5.5 mg/kg.
As to `CCCCCCOS(=O)N(C)C(=O)Oc1cccc2c1OC(C)(C)C2` (centres unmarked) [Example I, 2,3-dihydro-2,2-dimethylbenzofuranyl-7(methyl)(hexoxysulfinyl)carbamate], the values for the median lethal dose (LD50) in data set [1] (setting [4]) and in data set [2] (24 h) were 280 mg/kg and 13 mg/kg, respectively. Also, in data set [3], the “Culex LC50” value is 0.0025 ppm.
Regarding `CC(C)Oc1ccccc1OC(=O)N(C)S(=O)OC(C)(C)C` (centres unmarked) [IX, 2-isopropoxyphenyl (methyl)(t-butoxysulfinyl)carbamate], the 50% lethal dose (LD50) in data set [1] (setting [4]) is 400 mg/kg; in data set [2] (24 h), 65 mg/kg.
The like results for `CCCCCCOS(=O)N(C)C(=O)Oc1cccc(C(C)C)c1` (centres unmarked) [VII, 3-isopropylphenyl (methyl)(n-hexoxysulfinyl)carbamate] were, in that order, greater than 1000 mg/kg and 80 mg/kg.
Regarding `CCCCCCCCCCOS(=O)N(C)C(=O)ON=CC(C)(C)SC` (centres unmarked) [XII, 2-methyl-2-(methylthio)propionaldehyde O-[(methyl)(decoxysulfinyl)carbamoyl]oxime], the results for the LD50 in data set [1] (setting [4]) and in data set [2] (setting [5]) were 60 mg/kg and 11.5 mg/kg, respectively. Further, the “mammalian safety/toxicity compared with parent carbamate” value in the data set on Swiss white mice is given as “much safer to mammals”. In data set [2] (compared with aldicarb / carbofuran), the “toxicity to house flies compared with parent carbamate” value was “comparable toxicity”. Further, the “Culex LC50” value in data set [3] turned out to be 0.006 ppm.
With `CN(C(=O)Oc1cccc2c1OC(C)(C)C2)S(=O)Oc1ccccc1` (centres unmarked) [IV, 2,3-dihydro-2,2-dimethylbenzofuranyl-7(methyl)(phenoxysulfinyl)carbamate], the LD50 is 42 mg/kg in data set [1] (setting [4]) and 6.4 mg/kg in data set [2] (24 h). Besides, the “Culex LC50” value in data set [3] worked out at 0.0055 ppm.
As to `Cc1cccc(C)c1OS(=O)N(C)C(=O)Oc1cccc2c1OC(C)(C)C2` (centres unmarked) [V, 2,3-dihydro-2,2-dimethylbenzofuranyl-7(methyl)(2,6-dimethylphenoxysulfinyl)carbamate], the 50% lethal dose (LD50) in data set [1] (setting [4]) was 100 mg/kg; in data set [2] (24 h) it was 13.5 mg/kg.
Take `CCCCOS(=O)N(C)C(=O)Oc1cccc2c1OC(C)(C)C2` (centres unmarked) [III, 2,3-dihydro-2,2-dimethylbenzofuranyl-7(methyl)(n-butoxysulfinyl)carbamate]: the LD50 was 160 mg/kg in data set [1] (setting [4]) and 16 mg/kg in data set [2] (24 h).
Regarding `CCCCOS(=O)N(C)C(=O)Oc1cccc(C(C)C)c1` (centres unmarked) [VI, 3-isopropylphenyl (methyl)(n-butoxysulfinyl)carbamate], the median lethal dose (LD50) in data set [2] (24 h) stood at 50 mg/kg.

The values above are taken from patent publication US4263318A, “N-alkoxy- and N-aryloxysulfinylcarbamate esters” (priority 1979, dated 1981).
